In publication PMC10674565 (Pharmaceuticals, 2023):
One block for each compound: values may come before it.

Columns and labels:
[1] = biological target: T1, SLCO1B1 (Homo sapiens, UniProt Q9Y6L6); experiment: Inhibition of SLCO1B1-mediated uptake of atorvastatin in HEK293-SLCO1B1 cells; type: in vitro ADME; design: The SLCO1B1 gene was obtained via synthesis and was cloned into the pEGFP-N1 vector; expressed in transfected cells; host or cells: HEK293
T1 sequence (Q9Y6L6 1-691): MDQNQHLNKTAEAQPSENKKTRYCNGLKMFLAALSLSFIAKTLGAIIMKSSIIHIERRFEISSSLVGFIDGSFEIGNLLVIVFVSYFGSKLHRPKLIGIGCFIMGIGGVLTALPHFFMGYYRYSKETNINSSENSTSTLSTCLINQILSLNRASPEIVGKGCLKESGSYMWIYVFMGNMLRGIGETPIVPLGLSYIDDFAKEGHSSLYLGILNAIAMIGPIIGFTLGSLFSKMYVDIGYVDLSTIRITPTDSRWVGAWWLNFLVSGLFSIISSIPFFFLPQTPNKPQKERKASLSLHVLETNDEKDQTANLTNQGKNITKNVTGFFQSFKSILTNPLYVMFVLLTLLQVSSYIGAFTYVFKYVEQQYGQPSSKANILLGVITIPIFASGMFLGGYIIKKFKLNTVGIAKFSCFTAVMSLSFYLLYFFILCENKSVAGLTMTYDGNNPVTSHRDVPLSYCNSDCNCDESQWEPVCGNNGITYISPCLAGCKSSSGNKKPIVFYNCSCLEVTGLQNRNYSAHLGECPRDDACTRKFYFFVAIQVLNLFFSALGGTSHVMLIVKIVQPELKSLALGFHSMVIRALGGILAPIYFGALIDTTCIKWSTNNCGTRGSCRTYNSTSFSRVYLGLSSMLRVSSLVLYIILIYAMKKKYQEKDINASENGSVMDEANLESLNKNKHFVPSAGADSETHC
Procedure: As a positive inhibition control, rifampicin at similar concentrations was used. Three independent experiments were performed. […] Proteins were precipitated by adding acetonitrile in a 1:1 ratio to the sample. […] The mobile phase gradient program was as follows: 0-0.6 min-35% A and 65% B, 0.6-5.0 min-5% A and 95% B, 5.0-8.0 min-35% A and 65% B. The flow rate and the column temperature were maintained at 300 μL/min and 35 °C. Aliquots (2 μL) of the extracted samples were injected.

[2] = design: method as in earlier work; conditions: liver metabolites of EMHPS; cited from earlier work
[3] = biological target: ABCB1 (Homo sapiens, UniProt P08183); experiment: Effect on ABCB1-mediated transport of fexofenadine through the Caco-2 cells monolayer; conditions: all tested concentrations (1–200 µM), Caco-2 monolayer
Procedure: Transport experiments were carried out in Transwell® systems (12 mm Transwell® with 0.4 µm Pore Polycarbonate Membrane Insert, Sterile, «Corning»). The Transwell® system consists of two chambers, apical and basolateral. […] The medium was changed every 2–3 days. The apical and basolateral chambers represent the luminal and blood/mesenteric lymph sides of the gastrointestinal tract, respectively.
The transepithelial electrical resistance (TEER) across the cell monolayers was monitored using a Millicell-ERS (electrical resistance system) to assess cell monolayer integrity. For transport studies, only monolayers with a TEER > 500 Ω cm^2 were used.
To study the roles of different parts of the EMHPS molecule for its action on ABCB1, experiments with succinic acid were also carried out.
Prior to the transport experiments, the culture media was aspirated, and the monolayers were washed twice with transport medium and preincubated with EMHPS, succinic acid, or verapamil for 30 min.
The data are presented as the mean ± SD from three monolayers.
The resulting sample of the transport medium (50 μL) was diluted in 150 μL of the mobile phase, and 100 μL of the resulting solution was injected into the chromatograph. A Phenomenex Synergi 4u Polar-RP 80A (250 × 4.6) chromatographic column was used for analysis. The separation temperature was 35 °C; the flow rate was 1 mL/min. Composition of the mobile phase: acetonitrile (128 mL), deionized water (267.4 mL), acetic acid (6.33 mL), triethylamine to pH = 6.7. […] Detection was carried out at a wavelength of 220 nm.
Half maximal inhibitory concentration (IC50) values were determined through nonlinear regression based on the three-parameter logistic function.

[4] = human, HEK293-SLCO1B1 cells, pH 7.4, probe atorvastatin 1 µM

ABCB1, sequence (P08183 whole entry): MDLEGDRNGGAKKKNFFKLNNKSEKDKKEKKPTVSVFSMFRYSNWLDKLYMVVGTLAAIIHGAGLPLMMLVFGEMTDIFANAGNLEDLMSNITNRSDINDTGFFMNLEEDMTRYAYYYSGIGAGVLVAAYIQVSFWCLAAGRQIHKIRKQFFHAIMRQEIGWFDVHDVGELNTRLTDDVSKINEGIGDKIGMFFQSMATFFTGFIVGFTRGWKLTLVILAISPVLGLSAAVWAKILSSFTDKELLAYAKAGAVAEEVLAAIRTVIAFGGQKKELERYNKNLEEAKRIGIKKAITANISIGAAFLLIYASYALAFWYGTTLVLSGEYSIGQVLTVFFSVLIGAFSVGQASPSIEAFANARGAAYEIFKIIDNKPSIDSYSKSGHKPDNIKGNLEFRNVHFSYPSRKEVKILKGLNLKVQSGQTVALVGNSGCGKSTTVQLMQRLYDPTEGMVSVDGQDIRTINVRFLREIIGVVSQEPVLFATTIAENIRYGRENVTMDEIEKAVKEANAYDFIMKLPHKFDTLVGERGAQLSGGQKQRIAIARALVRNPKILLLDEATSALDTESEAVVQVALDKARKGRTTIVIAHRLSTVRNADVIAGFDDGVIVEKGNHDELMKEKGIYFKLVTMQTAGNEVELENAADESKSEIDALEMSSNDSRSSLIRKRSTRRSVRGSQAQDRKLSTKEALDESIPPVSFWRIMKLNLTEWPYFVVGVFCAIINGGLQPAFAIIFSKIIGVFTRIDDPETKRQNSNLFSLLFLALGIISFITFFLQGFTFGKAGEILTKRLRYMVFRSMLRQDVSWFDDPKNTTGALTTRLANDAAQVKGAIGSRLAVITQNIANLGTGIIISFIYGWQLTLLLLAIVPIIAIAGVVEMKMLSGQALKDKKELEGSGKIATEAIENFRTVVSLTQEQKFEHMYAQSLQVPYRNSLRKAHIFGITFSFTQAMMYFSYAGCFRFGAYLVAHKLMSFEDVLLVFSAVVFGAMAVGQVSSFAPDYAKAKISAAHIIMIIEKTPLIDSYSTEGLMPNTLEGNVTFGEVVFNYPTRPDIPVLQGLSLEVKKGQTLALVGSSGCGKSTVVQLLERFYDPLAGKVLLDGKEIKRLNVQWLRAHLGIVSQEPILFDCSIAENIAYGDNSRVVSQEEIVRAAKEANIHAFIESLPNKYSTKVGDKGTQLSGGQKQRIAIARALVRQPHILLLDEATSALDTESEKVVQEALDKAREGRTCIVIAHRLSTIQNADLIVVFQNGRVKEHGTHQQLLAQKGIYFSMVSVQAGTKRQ

IC50 [1]: 2.51 ± 1.35 µM
inhibition at 100 µM [1, 4]: 91.2%
inhibition at 500 µM [1, 4]: 95.4%
SMILES: CO[C@H]1/C=C/O[C@@]2(C)Oc3c(C)c(O)c4c(O)c(c(/C=N/N5CCN(C)CC5)c(O)c4c3C2=O)NC(=O)/C(C)=C\C=C\[C@H](C)[C@H](O)[C@@H](C)[C@@H](O)[C@@H](C)[C@H](OC(C)=O)[C@@H]1C [rifampicin]

SMILES: CCc1nc(C)ccc1O[C@@H]1O[C@H](C(=O)O)[C@@H](O)[C@H](O)[C@H]1O [2-ethyl-6-methyl-3-hydroxypyridine glucuronide]
pharmacological activity [2]: no pharmacological activity

SMILES: CCc1nc(C)ccc1O.O=P(O)(O)O [2-ethyl-6-methyl-3-hydroxypyridine phosphate]
pharmacological activity [2]: no pharmacological activity

SMILES: O=C(O)CCC(=O)O [succinic acid]
effect on Papp b-a, Papp a-b, and ER of fexofenadine transport [3]: did not have a significant effect
effect on SLCO1B1 activity ([1]; all tested concentrations (1–500 µM), uptake of 1 µM atorvastatin): did not have a significant effect
